Experiment [1] addresses T1, indoleamine 2,3-dioxygenase 1 (IDO1) (Homo sapiens, UniProt P14902). In words: capillary electrophoresis enzyme assay. In kind it is biochemical.
Experiment [2] addresses T1, indoleamine 2,3-dioxygenase 1 (IDO1). In words: % inhibition at […], capillary electrophoresis enzyme assay. In kind it is biochemical.

By IC50 is commonly meant the concentration that inhibits the measured activity by half. A high value points to a need for much substance. As a reminder, the inhibition is the change of the read-out against control, counted positive when it falls. A lower inhibition goes with little suppression.

T1 sequence (P14902 whole entry): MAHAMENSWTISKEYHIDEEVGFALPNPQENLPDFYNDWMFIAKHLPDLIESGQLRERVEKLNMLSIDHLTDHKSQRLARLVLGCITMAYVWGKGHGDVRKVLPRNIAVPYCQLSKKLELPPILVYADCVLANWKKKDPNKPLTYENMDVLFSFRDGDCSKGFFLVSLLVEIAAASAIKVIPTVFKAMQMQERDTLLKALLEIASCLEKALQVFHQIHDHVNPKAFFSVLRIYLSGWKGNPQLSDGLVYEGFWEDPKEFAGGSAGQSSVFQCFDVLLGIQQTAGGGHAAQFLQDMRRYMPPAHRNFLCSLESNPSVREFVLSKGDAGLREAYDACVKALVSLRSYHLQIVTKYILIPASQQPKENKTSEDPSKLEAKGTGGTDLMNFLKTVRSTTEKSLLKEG

In experiment [1], `O=C(/C=C/c1ccc(O)c(O)c1)O[C@@H]1C[C@](O)(C(=O)O)C[C@@H](O)[C@H]1O` [compound 2, Chlorogenic acid] came in with an IC50 of 308 µM.
Turning to `COc1cc(/C=C/C(=O)O[C@@H]2C[C@@](O)(C(=O)O)C[C@@H](O)[C@@H]2O)ccc1O` [compound 4, 3-O-Feruloylquinic acid], at 100 µM the inhibition in experiment [2] was 16.4%.
`O=C(/C=C/c1ccc(O)c(O)c1)O[C@@H]1C[C@@](O)(C(=O)O)C[C@@H](O)[C@@H]1O` [compound 1, Neochlorogenic acid]: in experiment [2], 100 µM produced 10.9% inhibition.
Regarding `COc1cc(/C=C/C(=O)O)ccc1O` [compound 7, Ferulic acid], in experiment [1], inhibition was half-maximal at 114 µM (IC50).
Regarding `O=C(/C=C/c1ccc(O)c(O)c1)O[C@H]1[C@H](O)C[C@](O)(C(=O)O)C[C@H]1O` [compound 3, Cryptochlorogenic acid], the inhibition at 100 µM in experiment [2] worked out at 11.8%.
`O=C(/C=C/c1ccc(O)c(O)c1)O[C@H]1[C@H](O)C[C@](O)(C(=O)O)C[C@H]1OC(=O)/C=C/c1ccc(O)c(O)c1` [compound 8, Isochlorogenic acid B] registered an inhibition at 100 µM in experiment [2] of 19.1%.
On the same count and under the same terms, to `COc1cc(/C=C/C(=O)O[C@@H]2C[C@](O)(C(=O)O)C[C@@H](O)[C@H]2O)ccc1O` [compound 6, 5-O-Feruloylquinic acid] belongs 12.7%; to `O=C(/C=C/c1ccc(O)c(O)c1)O[C@@H]1[C@H](O)C[C@@](O)(C(=O)O)C[C@H]1OC(=O)/C=C/c1ccc(O)c(O)c1` [compound 10, Isochlorogenic acid C], 10.9%.
